The record followed here is ChEMBL document CHEMBL5576105, “Synthesis and biological evaluation of O4'-benzyl-hispidol derivatives and analogs as dual monoamine oxidase-B inhibitors and anti-neuroinflammatory agents” (Bioorg Med Chem, 2024).

Activity calls are given as the source filed them. The calls are words filed in the database; no cut-off is given here. A value given as a limit tells only on which side of the number the result lay.

One series concerns MAO-B. The series is described as follows: Safety ratio of cytotoxicity against mouse BV-2 cells to IC50 for inhibition of human recombinant MAO-B expressed in baculovirus-infected BTI cells. In kind it is toxicity.
For series [1], the target named is T1, Amine oxidase [flavin-containing] B (Homo sapiens, UniProt P27338).
T1 sequence (P27338 whole entry): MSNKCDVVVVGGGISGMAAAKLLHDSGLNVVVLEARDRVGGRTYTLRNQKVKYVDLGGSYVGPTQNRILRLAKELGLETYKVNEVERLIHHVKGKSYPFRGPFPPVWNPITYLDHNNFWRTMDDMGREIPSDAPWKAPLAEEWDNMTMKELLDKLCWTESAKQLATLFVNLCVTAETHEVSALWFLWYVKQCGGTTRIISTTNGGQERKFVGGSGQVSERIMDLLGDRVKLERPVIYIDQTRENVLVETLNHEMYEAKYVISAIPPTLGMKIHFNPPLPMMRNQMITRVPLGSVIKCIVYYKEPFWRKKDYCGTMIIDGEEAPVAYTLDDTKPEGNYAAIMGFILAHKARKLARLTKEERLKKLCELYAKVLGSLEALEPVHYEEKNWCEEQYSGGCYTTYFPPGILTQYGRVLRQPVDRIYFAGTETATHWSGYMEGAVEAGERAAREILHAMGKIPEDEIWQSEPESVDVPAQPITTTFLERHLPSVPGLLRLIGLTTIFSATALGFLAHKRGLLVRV
The series is described as follows: Inhibition of human recombinant MAO-B expressed in baculovirus-infected BTI cells using benzylamine as substrate preincubated with enzyme for 15 mins followed by substrate addition and measured after 20 mins by Amplex Red reagent based fluorescence analysis.

In series [2] the target is T2, Amine oxidase [flavin-containing] A (Homo sapiens, UniProt P21397).
T2 sequence (P21397 whole entry): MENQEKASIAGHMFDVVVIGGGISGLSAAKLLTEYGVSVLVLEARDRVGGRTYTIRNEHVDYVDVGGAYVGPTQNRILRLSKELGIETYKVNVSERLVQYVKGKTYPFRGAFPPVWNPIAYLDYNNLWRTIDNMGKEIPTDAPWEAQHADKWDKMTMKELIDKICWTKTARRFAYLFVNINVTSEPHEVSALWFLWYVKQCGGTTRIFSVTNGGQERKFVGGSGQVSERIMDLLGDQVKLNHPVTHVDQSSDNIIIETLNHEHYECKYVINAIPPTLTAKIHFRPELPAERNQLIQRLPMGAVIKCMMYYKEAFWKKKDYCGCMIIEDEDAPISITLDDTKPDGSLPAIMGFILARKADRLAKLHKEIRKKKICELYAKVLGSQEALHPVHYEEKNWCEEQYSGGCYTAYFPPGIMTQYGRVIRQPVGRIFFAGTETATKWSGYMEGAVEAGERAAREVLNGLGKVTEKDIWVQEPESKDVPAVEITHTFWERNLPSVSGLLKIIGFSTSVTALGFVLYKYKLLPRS
Kind of series: Inhibition of human recombinant MAO-A using p-tyramine as substrate preincubated with enzyme for 15 mins followed by substrate addition and measured after 20 mins by Amplex Red reagent based fluorescence analysis.

Another series is filed under the species Homo sapiens. Kind of series: Selectivity index, ratio of IC50 for inhibition of human recombinant MAO-A to IC50 for inhibition of human recombinant MAO-B expressed in baculovirus-infected BTI cells.
Series [3] has as its target T1, Amine oxidase [flavin-containing] B. Kind of series: Inhibition of human recombinant MAO-B expressed in baculovirus-infected BTI cells at 10 uM using benzylamine as substrate preincubated with enzyme for 15 mins followed by substrate addition and measured after 20 mins by Amplex Red reagent based fluorescence analysis. The following applies: time 35 min.
Series [4] deals with BV-2. The series is described as follows: Anti-neuroinflammatory activity against mouse BV-2 cells assessed as suppression of LPS-induced NO production at 3 uM. In kind it is functional, cell-based.
The test system of series [5] is BV-2. Kind of series: Anti-neuroinflammatory activity against mouse BV-2 cells assessed as suppression of LPS-induced NO production at 1 uM. In kind it is functional, cell-based.
Series [6] deals with BV-2. The series is described as follows: Anti-neuroinflammatory activity against mouse BV-2 cells assessed as suppression of LPS-induced PGE2 production. In kind it is functional, cell-based. Conditions: dose 5-10 µM.
Series [7] has as its system BV-2. Kind of series: Cytotoxicity against mouse BV-2 cells assessed as effect on cell viability upto 10 uM. The following applies: bv-2, 10 µM. In kind it is toxicity, cell-based.
In series [8] the test system is BV-2. Kind of series: Cytotoxicity against mouse BV-2 cells assessed as effect on cell viability at 30 uM. Conditions: bv-2, 30 µM. In kind it is toxicity, cell-based.
Series [9] deals with BV-2. Kind of series: Anti-neuroinflammatory activity against mouse BV-2 cells assessed as suppression of LPS-induced PGE2 production at 10 uM. The series is classed as functional, cell-based.
The subject of series [10] is BV-2. Kind of series: Anti-neuroinflammatory activity against mouse BV-2 cells assessed as suppression of LPS-induced NO production. The series is classed as functional, cell-based.
For series [11], the system named is BV-2. The series is described as follows: Anti-neuroinflammatory activity against mouse BV-2 cells assessed as suppression of LPS-induced NO production at 10 uM. The series is classed as functional, cell-based.
The subject of series [12] is BV-2. The series is described as follows: Anti-neuroinflammatory activity against mouse BV-2 cells assessed as suppression of LPS-induced PGE2 production at 5 to 10 uM. In kind it is functional, cell-based. The following applies: dose 5-10 µM.
Series [13] addresses T1, Amine oxidase [flavin-containing] B. Kind of series: Irreversible inhibition of MAO-B (unknown origin) measured after drug wash-out.

The term IC50 denotes the concentration that gives 50% inhibition. The term inhibition denotes the change of the read-out against control, counted positive when it falls. As to `O=C1/C(=C/c2ccc(OCc3ccccc3Br)cc2)Oc2cc(O)ccc21`, the selectivity ratio in the series with MAO-B is greater than 6. Moreover, the IC50 in series [1] was 0.44 µM; in [2], greater than 100 µM. For the same compound, the Ratio IC50 in the series filed under Homo sapiens was greater than 227. In addition, the inhibition at 10 µM in [3] came out at 81.7%.

Turning to `O=C1/C(=C/c2ccc(OCc3cccc(Cl)c3)cc2)Oc2cc(O)ccc21`, in series [3], the inhibition at 10 µM worked out at 59%.

Consider `O=C1/C(=C/c2cccc(OCc3ccccc3)c2)Oc2cc(O)ccc21`, for which the IC50 in [1] is 1.11 µM; in series [2], greater than 100 µM. The Ratio IC50 in the series listed under Homo sapiens is greater than 89.8. Further, the inhibition at 10 µM in [3] turned out to be 77.8%.

Take `O=C1/C(=C/c2cccc(OCc3cccc(F)c3)c2)Oc2cc(O)ccc21`: the inhibition at 10 µM in [3] worked out at 55.1%.

For `O=C1/C(=C/c2cccc(OCc3ccc(F)cc3)c2)Oc2cc(O)ccc21`, the IC50 in [1] was 2.37 µM; in series [2], greater than 100 µM. Besides, the Ratio IC50 in the series filed under Homo sapiens is greater than 42.2. For the same compound, the inhibition at 10 µM in series [3] is 60.7%.

For `COc1cccc(COc2ccc(/C=C3\Oc4cc(O)ccc4C3=O)cc2)c1`, the inhibition at 10 µM in [3] was determined as 59.7%.

For `O=C1/C(=C/c2cccc(OCc3ccc(Br)cc3)c2)Oc2cc(O)ccc21`, the values for the IC50 in series [1] and in [2] were 1.67 µM and greater than 100 µM, respectively. Also, the Ratio IC50 in the series listed under Homo sapiens is greater than 59.9. Besides, in series [3], the inhibition at 10 µM was found to be 69.6%.

`COc1cccc(COc2cccc(/C=C3\Oc4cc(O)ccc4C3=O)c2)c1`: the concentration for half-maximal inhibition (IC50) in series [1] is 1.06 µM; in series [2] it was greater than 30 µM. The Ratio IC50 in the series listed under Homo sapiens was greater than 28.4. Moreover, the inhibition at 10 µM in [3] came out at 70.1%.

Consider `O=C1/C(=C/c2ccc(OCc3ccc(F)cc3)cc2)Oc2cc(O)ccc21`, for which the result in the series with BV-2 [4] and with BV-2 [9] was Active. Further, in the series with MAO-B, the selectivity ratio is greater than 30. In the series with BV-2 [5], the result was inactive. Also, the figures for the IC50 in series [1] and in series [2] were 1 µM and greater than 100 µM, respectively. Further, the Activity result is “Dose-Dependent Effect” with BV-2 [6], “Non-Toxic” in the series on BV-2 [7], “Non-Toxic” in the series on BV-2 [8] and “Dose-Dependent Effect” in the series on BV-2 [10]. Also, the Ratio IC50 in the series filed under Homo sapiens was greater than 100. Further, the inhibition at 10 µM in [3] is 68.2%.

Turning to `O=C1/C(=C/c2ccc(OCc3ccccc3)cc2)Oc2cc(O)ccc21`, the selectivity ratio with MAO-B was greater than 41.6. Moreover, the half-maximal inhibitory concentration (IC50) in series [1] is 0.72 µM; in series [2], greater than 100 µM. The Activity result was “Dose-Dependent Effect” in the series with BV-2 [6], “Non-Toxic” in the series on BV-2 [7], “Non-Toxic” in the series with BV-2 [8] and “Dose-Dependent Effect” in the series with BV-2 [10]. The Ratio IC50 in the series filed under Homo sapiens was greater than 138. For the same compound, the outcome in the series with BV-2 [11] and in the series with BV-2 [12] was Active. Also, the inhibition at 10 µM in [3] was 86.7%.

In the case of `O=C1/C(=C/c2cccc(OCc3ccc(Cl)cc3)c2)Oc2cc(O)ccc21`, the half-maximal inhibitory concentration (IC50) in series [1] was 1.81 µM; in [2], greater than 100 µM. In addition, the Ratio IC50 in the series filed under Homo sapiens is greater than 55.2. In addition, the inhibition at 10 µM in series [3] came to 70.7%.

Regarding `O=C1/C(=C/c2cccc(OCc3ccccc3Br)c2)Oc2cc(O)ccc21`, the inhibition at 10 µM in series [3] is 36%.

Take `O=C1/C(=C/c2ccc(OCc3ccc(Br)cc3)cc2)Oc2cc(O)ccc21`: the inhibition at 10 µM in series [3] was 41.1%.

`O=C1/C(=C/c2ccc(OCc3cccc(Br)c3)cc2)Oc2cc(O)ccc21`: the selectivity ratio with MAO-B worked out at 10.6. In addition, the IC50 in series [1] was 0.95 µM; in series [2], greater than 100 µM. Besides, the Ratio IC50 in the series listed under Homo sapiens was greater than 106. Further, the Activity entry with BV-2 [7] is given as “Non-Toxic”. Moreover, the inhibition at 10 µM in series [3] is 67.9%.

On to `O=C1/C(=C/c2ccc(OCc3cccc(F)c3)cc2)Oc2cc(O)ccc21`, for which, in [3], the inhibition at 10 µM came out at 55.3%.

`O=C1/C(=C/c2cccc(OCc3ccccc3F)c2)Oc2cc(O)ccc21`: the concentration for half-maximal inhibition (IC50) in series [1] is 0.95 µM; in series [2], greater than 100 µM. Besides, the Ratio IC50 in the series listed under Homo sapiens was greater than 106. The inhibition at 10 µM in series [3] amounted to 73.9%.

For `O=C1/C(=C/c2ccc(OCc3ccccc3F)cc2)Oc2cc(O)ccc21`, in the series on MAO-B, the selectivity ratio was greater than 13.1. Further, the half-maximal inhibitory concentration (IC50) in series [1] is 0.76 µM; in [2], greater than 100 µM. Further, the Ratio IC50 in the series filed under Homo sapiens was greater than 131. The Activity result in the series with BV-2 [7] is “Non-Toxic”. Further, in series [3], the inhibition at 10 µM came to 74.2%.

`O=C1/C(=C/c2cccc(OCc3cccc(Cl)c3)c2)Oc2cc(O)ccc21`: the 50% inhibitory concentration (IC50) is 1.91 µM in series [1] and greater than 100 µM in series [2]. Also, in the series filed under Homo sapiens, the Ratio IC50 was greater than 52.3. In addition, the inhibition at 10 µM in [3] turned out to be 61.7%.

As for `O=C1/C(=C/c2cccc(OCc3cccc([N+](=O)[O-])c3)c2)Oc2cc(O)ccc21`, in [3], the inhibition at 10 µM was found to be 33.9%.

Regarding `O=C1/C(=C/c2ccc(OCc3ccc(Cl)cc3)cc2)Oc2cc(O)ccc21`, the inhibition at 10 µM in [3] turned out to be 35.6%.

As to `O=C1/C(=C/c2ccc(OCc3ccccc3Cl)cc2)Oc2cc(O)ccc21`, the result with BV-2 [4] and in the series on BV-2 [12] was Active. Besides, in the series on MAO-B, the selectivity ratio is greater than 27. Also, the result in the series on BV-2 [5] was inactive. Besides, the IC50 was 0.38 µM in series [1] and greater than 100 µM in [2]. For the same compound, the “inhibition (INH)” value in series [13] is “Active”. In the series filed under Homo sapiens, the Ratio IC50 was greater than 264. Further, the results for the Activity result with BV-2 [7] and in the series with BV-2 [10] were “Non-Toxic” and “Dose-Dependent Effect”, respectively. In series [3], the inhibition at 10 µM was 81.3%.

With `O=C1/C(=C/c2ccc(OCc3cccc([N+](=O)[O-])c3)cc2)Oc2cc(O)ccc21`, the inhibition at 10 µM in [3] was determined as 48.5%.

For `O=C1/C(=C/c2cccc(OCc3cccc(Br)c3)c2)Oc2cc(O)ccc21`, the IC50 in series [1] was 2.02 µM; in series [2], greater than 100 µM. For the same compound, the Ratio IC50 in the series filed under Homo sapiens was greater than 49.6. Further, the inhibition at 10 µM in series [3] was determined as 62.7%.

Regarding `COc1ccc(/C=C2\Oc3cc(O)ccc3C2=O)c(OC)c1OC`, in [2], the IC50 is greater than 100 µM. Moreover, the Ratio IC50 in the series filed under Homo sapiens is greater than 583.

Regarding `O=C1/C(=C/c2cccc(OCc3ccccc3Cl)c2)Oc2cc(O)ccc21`, in [3], the inhibition at 10 µM is 41.7%.
